Laboratory results as given in article PMC2192064 (The Journal of Experimental Medicine, 1995).
Where no end group is shown, it is not given here.

Experiments:
[1] = tested on: T cell-enriched splenic cells from 12-14-wk-old female BWF1 mice; assay: Proliferation of unprimed splenic T cells in response to peptides; type: cell-based, mouse; conditions: result in words
BWF1 mice = assay: Pathogenic potential: immunization of young BWF1 mice with peptides; type: in vivo, mouse; conditions: p34 or p84 immunization vs PBS/CFA/alum; p <0.05
[2] = target: T1, purified I-Au class II molecules (Mus musculus, UniProt P06344+P14438); assay: Class II-peptide-binding inhibition assay, I-Au
T1 sequence (P14438 1-227): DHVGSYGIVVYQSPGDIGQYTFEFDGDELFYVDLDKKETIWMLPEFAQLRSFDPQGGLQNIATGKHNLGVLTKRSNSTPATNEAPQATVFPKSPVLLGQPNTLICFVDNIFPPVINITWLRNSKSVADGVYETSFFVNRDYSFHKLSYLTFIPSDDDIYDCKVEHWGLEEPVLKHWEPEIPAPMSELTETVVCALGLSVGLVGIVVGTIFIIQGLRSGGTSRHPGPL
T1 sequence (P06344 28-263): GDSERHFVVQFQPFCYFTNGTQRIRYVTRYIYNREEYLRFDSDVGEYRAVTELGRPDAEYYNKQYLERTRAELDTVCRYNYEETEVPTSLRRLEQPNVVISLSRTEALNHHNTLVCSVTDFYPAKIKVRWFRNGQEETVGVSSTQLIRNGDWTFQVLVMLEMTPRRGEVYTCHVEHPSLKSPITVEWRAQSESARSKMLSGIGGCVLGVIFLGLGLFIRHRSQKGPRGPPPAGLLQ

[3] = target: I-Ad class II molecule (mouse); assay: radioligand binding

MNWVKQSHGKSL [p34] was tested, and the “proliferative responses in naive BWF1 T cells” value [1] was “elicit proliferative responses” and the plasma creatinine levels (BWF1 mice) was “increase in plasma creatinine levels”.
`C[C@H](NC(=O)[C@H](C)NC(=O)[C@H](Cc1c[nH]cn1)NC(=O)[C@H](C)NC(=O)[C@H](C)NC(=O)[C@H](Cc1c[nH]cn1)NC(=O)[C@H](C)NC(=O)[C@H](C)NC(=O)[C@H](Cc1c[nH]cn1)NC(=O)[C@H](C)NC(=O)[C@H](C)NC(=O)[C@H](Cc1c[nH]cn1)NC(=O)[C@H](C)NC(=O)[C@H](C)NC(=O)[C@H](Cc1c[nH]cn1)NC(=O)[C@H](C)NC(=O)[C@@H](N)Cc1ccc(O)cc1)C(=O)O` [RO IV] showed an IC50 [2] of 8 nM.
Work on “OVA 323-336 (from UniProt P01012 324-337) (peptide)” yielded an IC50 [3] of 110 nM.
